Results reported in patent publication US5187169A, “Method for treatment of neurodegenerative diseases” (R. J. Reynolds Tobacco Company, priority 1992, dated 1993).

Columns and labels:
[1] = biological target: high affinity nicotinic receptors; assay: Inhibition of L-[3H]nicotine binding to mouse brain membrane preparations; design: species or system Mice (DBA strain); details: mouse brain membranes, 2 hr incubation at 4° C., 10 nM L-[3H]nicotine, Ki calculated from IC50 by the method of Cheng et al.
Description: Mice (DBA strain) were maintained on a 12 hour light/dark cycle and were allowed free access to water and food supplied by Wayne Lab Blox, Madison, Wis. Animals used in the present studies were 60 to 90 days of age and weighed 20 to 25 g. Brain membrane preparations were obtained from pooled brain tissue of both males and females.
Mice were killed by cervical dislocation. Brains were removed and placed on an ice-cold platform. […] Protein was determined by the method of Lowry, et al., J. Biol. Chem., Vol. 193, pp. 265-275 (1951), using bovine serum albumin as the standard.
The binding of L-[^3 H]nicotine was measured using a modification of the method of Romano, et al., Science, Vol. 210, pp. 647-650 (1980) as described previously by Marks, et al., Mol. Pharmacol., Vol. 30, pp. 427-436 (1986). The binding of L-[^3 H]nicotine was measured using a 2 hr. incubation at 4° C. […] Nonspecific binding was determined by inclusion of 10 μM nonradioactive nicotine in the incubations. The inhibition of L-[^3 H]nicotine binding by test compounds was determined by including one of eight different concentrations of the test compound in the incubation. […] Inhibition constants (Ki values) were calculated from the IC50 values using the method of Cheng, et al., Biochem. Pharmacol., Vol. 22, pp. 3099-3108 (1973). […]

[2] = system: synaptosomes from the striatal area of rat brain; assay: [3H]-dopamine release from rat striatal synaptosomes; format: cell-based, Sprague-Dawley rats; details: 0.2 ml of a 20 μM solution of ligand, relative to an equal concentration of (S)-(-)-nicotine
Description: Dopamine release was measured by preparing synaptosomes from the striatal area of rat brain obtained from Sprague-Dawley rats generally according to the procedures set forth by Nagy, et al., J. Neurochem., Vol. 43, pp. 1114-1123 (1984). Striata from 4 rats were homogenized in 2 ml of 0.32M sucrose buffered with 5 mM HEPES (pH 7.5), using a glass-teflon tissue grinder. The homogenate was diluted to 5 ml with additional homogenization solution and centrifuged at 1000×g for 10 min. This procedure was repeated on the new pellet and the resulting supernatant was centrifuged at 12,000×g for 20 min. […] Using this method, 30 to 90 percent of the dopamine was taken up into the synaptosomes, as determined by scintillation counting following filtration through glass fiber filters soaked with 0.5 percent polyethyleneimine. […] After the addition of a 0.2 ml of a 20 μM solution of ligand, the perfusate was collected into scintillation vials at 1 min. intervals and the dopamine released was quantified by scintillation counting. Peaks of radioactivity released above background were summed and the average basal release during that time was subtracted from the total. Release was expressed as a percentage of release obtained with an equal concentration of (S)-(-)-nicotine.

## CN1C(=O)CC[C@H]1c1cccnc1 [cotinine]
[1]
  Ki: 3.9 µM
[2]
  Dopamine Release: 20 Percent release relative to (S
